System: T. bisselliella
Assay: Arena bioassay: captures of moths on sticky traps baited with test or control stimuli
Type: in vivo, Tineola bisselliella
Conditions: Exps. 29-31; 16:Ester 480 ng plus Z9-16:Ester 840 ng tested together
Description: Tactic responses of T. bisselliella to volatile stimuli from larval habitat were assessed in a closed cylindrical Plexiglas container (125 cm diameter, 60 cm height). Thin cardboard discs (10 cm diameter) coated with Tanglefoot on the upper side were placed on the arena floor 80 cm apart from each other. Platforms suspended above the centre of the coated discs supported randomly assigned test or control stimuli. Control stimuli consisted of cardboard silhouettes visually resembling test stimuli. Per experiment 10 replicates with 25 adult moths each were employed. Moths were released during the scotophase from a Petri dish in the centre of the arena after 30-min of acclimation. After 12 hours of experimental time, moths captured on sticky discs (FIG. 1) were recorded as responders and statistically analysed.

| SMILES | trap captures, attraction by synthetic male pheromone components |
| --- | --- |
| CCCCCC/C=C\CCCCCCCC(=O)OC [(Z)-9-hexadecenoic acid methyl ester] | attracted both male and virgin female T. bisselliella |
| CCCCCCCCCCCCCCCC(=O)OC [hexadecanoic acid methyl ester] | attracted both male and virgin female T. bisselliella |

Same assay, conditions: Exps. 34-37; tested together in various ratios

| SMILES | trap captures of males, attraction by synthetic female pheromone components |
| --- | --- |
| CCCC/C=C\CCCCCCCCC/C=C/C=O [(E,Z)-2,13:octadecadienal] | attracted male T. bisselliella |
| CCCC/C=C\CCCCCCCCC/C=C/CO [(E,Z)-2,13:octadecadienol] | attracted male T. bisselliella |

Same assay, conditions: geranylacetone (44 ng) and nonanal (3.5 μg) tested together, equivalent quantities; female or male moths

| SMILES | trap captures versus dried muskrat pelt |
| --- | --- |
| CC(=O)CC/C=C(\C)CCC=C(C)C [geranylacetone] | more attractive than natural (muskrat) pelt |
| CCCCCCCCC=O [nonanal] | more attractive than natural (muskrat) pelt |

System: T. bisselliella antenna
Assay: Coupled gas chromatographic-electroantennographic detection (GC-EAD)
Set-up: species or system Tineola bisselliella
Conditions: male and gravid female T. bisselliella antenna; 5 pelt-min of squirrel pelt volatile extract
Description: Samples of animal pelt (150 cm^2) were aerated for one week in a cylindrical Pyrex glass chamber. A water-aspirator was used to draw charcoal-filtered, humidified air at 2 L/min through the chamber and a glass column (14 cm×13 mm O. D.) filled with Porapak Q. Volatiles captured on Porapak Q were eluted with 5 ml of redistilled pentane and the eluent concentrated to 2 ml by distillation in a 30 cm Dufton column, adjusting the volatile extract so that 2 μl equalled 5 pelt-min of volatile collection. Aliquots of 2.5 pelt-min equivalents of Porapak Q-captured volatile extracts were analysed by coupled gas chromatographic-electroantennographic detection (GC-EAD) (28) (FIG. 2).
FIG. 2 illustrates flame ionization detector (FID) and electroantennographic detector (EAD ♂: male T. bisselliella antenna; EAD ♀: gravid female T. bisselliella antenna) responses to 5 pelt-min of squirrel pelt volatile extract. Chromatography: Hewlett Packard (HP) 5890A gas chromatograph equipped with a fused silica column (30 m×0.25 mm ID) coated with DB-5; linear flow velocity of carrier gas: 35 cm/sec; injector and FID detector temperature: 240° C.; temperature program: 1 min at 50° C., 20° C./min to 70° C. then 7.5° C./min to 280° C. (J & W Scientific, Folsom, Calif. 95630). EAD-active compounds were analyzed by GC-mass spectrometry (MS) in full scan electron impact (EI) and chemical ionization (isobutane) (CI) modes, using a Varian Saturn II Ion Trap GC-MS and a HP 5985B GC-MS. Antennally-active compounds were identified as follows: 1. hexanal (20.0); 2. heptanal (35.0); 3. octanal (55.0); 4. nonanal (80.0); 5. decanal (20.0); 6. dodecanal (4.0); 7. tridecanal (6.0); 8. tetradecanal (5.0); 9. pentadecanal (0.8); 10. hexadecanal (1.0); 11. heptadecanal (0.7); 12. octadecanal (0.1); 13. heptanol (10.0); 14. nonanol (10.0); 15. decanol (12.0); 16. undecanol (200.0); 17. dodecanol (10.0); 18. tridecanol (70.0); 19. tetradecanol (3.0); 20. pentadecanol (2.0); 21. hexadecanol (0.3); 22. heptadecanol (0.5); 23. octadecanol (0.1); 24. tetradecane (20.0); 25. pentadecane (100.0); 26. hexadecane (100.0); 27. eicosane (20.0); 28. uneicosane (0.7); 29.2-undecanal (4.0); 30. E2-nonenal (9.0); 31. E2-decenal (11.0); 32. geranylacetone (1.0). Numbers in brackets refer to nanogram quantities present in 15 pelt-min of aeration of dried, untanned animal pelt (150 cm^2).
The bodies of two hundred 24-48 hour old virgin male T. bisselliella were extracted for 15 min in methanol.
FIG. 6 illustrates flame ionization detector (FID) and electroantennographic detection (EAD: male T. bisselliella antenna) responses to one male equivalent of male T. bisselliella body extract. EAD-active compounds 1-3 were identified by GC-mass spectrometry as 1. hexadecanoic acid methyl ester; 2. (Z)-9-hexadecenoic acid methyl ester; and 3. octadecanoic acid methyl ester. […] Chromatography: Hewlett Packard (HP) 5890A gas chromatograph equipped with a fused silica column (30 m×0.32 mm ID) coated with DB-23 (J & W Scientific, Folsom, Calif. 95630); linear flow velocity of carrier gas: 35 cm/sec; injector and FID detector temperature: 240° C.; temperature program: 1 min at 50° C., 10° C./min to 200° C. EAD-active compounds were identified by GC-mass spectrometry (MS) in full scan electron impact (EI) mode using a Varian Saturn II Ion Trap GC-MS.
Terminal abdominal segments with pheromone glands of one-hundred 12-48 hour-old virgin females were severed and extracted for 5-15 min in hexane.
FIG. 10 illustrates flame ionization detector (FID) and electroantennographic detector (EAD: male T. bisselliella antenna) responses to one female equivalent of female T. bisselliella pheromone gland extract. EAD-active compounds 1-3 were identified as 1. (E,Z)-2,13:octadecadienol (E2,Z13-18:OH) and 2. (E,Z)-2,13:octadecadienal (E2,Z13-18:Ald). […]

| SMILES | electroantennographic detector (EAD) response to components of squirrel pelt volatile extract |
| --- | --- |
| CCCCCCCCCC(C)=O [2-undecanal] | Antennally-active |
| CCCCCCC/C=C/C=O [E2-decenal] | Antennally-active |
| CCCCCC/C=C/C=O [E2-nonenal] | Antennally-active |
| CCCCCCCCCC=O [decanal] | Antennally-active |
| CCCCCCCCCCO [decanol] | Antennally-active |
| CCCCCCCCCCCC=O [dodecanal] | Antennally-active |
| CCCCCCCCCCCCO [dodecanol] | Antennally-active |
| CCCCCCCCCCCCCCCCCCCC [eicosane] | Antennally-active |
| CC(=O)CC/C=C(\C)CCC=C(C)C [geranylacetone] | Antennally-active |
| CCCCCCCCCCCCCCCCC=O [heptadecanal] | Antennally-active |
| CCCCCCCCCCCCCCCCCO [heptadecanol] | Antennally-active |
| CCCCCCC=O [heptanal] | Antennally-active |
| CCCCCCCO [heptanol] | Antennally-active |
| CCCCCCCCCCCCCCCC=O [hexadecanal] | Antennally-active |
| CCCCCCCCCCCCCCCC [hexadecane] | Antennally-active |
| CCCCCCCCCCCCCCCCO [hexadecanol] | Antennally-active |

| SMILES | electroantennographic detector (EAD) response to components of squirrel pelt volatile extract |
| --- | --- |
| CCCCCC=O [hexanal] | Antennally-active |
| CCCCCCCCC=O [nonanal] | Antennally-active |
| CCCCCCCCCO [nonanol] | Antennally-active |
| CCCCCCCCCCCCCCCCCC=O [octadecanal] | Antennally-active |
| CCCCCCCCCCCCCCCCCCO [octadecanol] | Antennally-active |
| CCCCCCCC=O [octanal] | Antennally-active |
| CCCCCCCCCCCCCCC=O [pentadecanal] | Antennally-active |
| CCCCCCCCCCCCCCC [pentadecane] | Antennally-active |
| CCCCCCCCCCCCCCCO [pentadecanol] | Antennally-active |
| CCCCCCCCCCCCCC=O [tetradecanal] | Antennally-active |
| CCCCCCCCCCCCCC [tetradecane] | Antennally-active |
| CCCCCCCCCCCCCCO [tetradecanol] | Antennally-active |
| CCCCCCCCCCCCC=O [tridecanal] | Antennally-active |
| CCCCCCCCCCCCCO [tridecanol] | Antennally-active |
| CCCCCCCCCCCO [undecanol] | Antennally-active |
| CCCCCCCCCCCCCCCCCCCCC [uneicosane] | Antennally-active |

Same assay, conditions: male antenna, one female equivalent

| SMILES | EAD response to components of female T. bisselliella pheromone gland extract |
| --- | --- |
| CCCC/C=C\CCCCCCCCC/C=C/C=O [(E,Z)-2,13:octadecadienal] | EAD-active |
| CCCC/C=C\CCCCCCCCC/C=C/CO [(E,Z)-2,13:octadecadienol] | EAD-active |

Same assay, conditions: male antenna, one male equivalent; similar responses with female antennae

| SMILES | EAD response to components of male T. bisselliella body extract |
| --- | --- |
| CCCCCC/C=C\CCCCCCCC(=O)OC [(Z)-9-hexadecenoic acid methyl ester] | EAD-active |
| CCCCCCCCCCCCCCCC(=O)OC [hexadecanoic acid methyl ester] | EAD-active |
| CCCCCCCCCCCCCCCCCC(=O)OC [octadecanoic acid methyl ester] | EAD-active |

System: T. bisselliella
Assay: not given
Conditions: literature refs 16, 17; cited from earlier work

| SMILES | attractiveness as reported sex pheromone components |
| --- | --- |
| CCCC/C=C\CCCCCCCCC/C=C/C=O [(E,Z)-2,13:octadecadienal] | only moderately attractive |
| CCCCCCCCCCCCCCC/C=C/C=O [E2-octadecenal, reference compound] | only moderately attractive |
